Laboratory results published in US20250099475A1, “METHODS OF TREATING HYPERTENSION BY PERIODIC SUPPRESSION OF ALDOSTERONE SYNTHASE” (Mineralys Therapeutics, Inc., priority 2022, published 2025).

Columns and labels:
[1] = Phase 1 safety and tolerability; type: in vivo, human
Method: A 4-part, Phase 1 randomized, double-blind, placebo-controlled, first-in-human study was performed to determine the safety, tolerability, PK, and PD of single ascending doses (SADs; part 1) and multiple ascending doses (MADs; part 2) of Compound A HBr in healthy participants. The study also assessed whether there were sex (part 3) and age-related (part 4) effects on the PK of a single dose of Compound A HBr. The study was approved by the local independent ethics committee; the BEBO foundation in Assen, Netherlands; and the Central Committee on Research Involving Human Subjects in The Hague, Netherlands; and conducted according to the provisions of the Declaration of Helsinki. Written informed consent was obtained from each study participant before conducting any protocol-related procedures.
Safety measurements (adverse events [AE], safety laboratory, vital signs and electrocardiograms, physical examinations) were summarized and/or listed.

plasma aldosterone (PAC) [2] = test: Phase 1 part 2 multiple ascending dose: pharmacodynamics, ACTH challenge; type: in vivo, human; conditions: for return of baseline aldosterone levels by: multiple 120-mg doses; for Aldosterone AUC0-24, mean (SD): Day 7
Method: In part 2, Compound A HBr or placebo was administered to a total of 36 healthy Caucasian men aged 19 to 54 years (inclusive) in 3 cohorts of 12 participants each. In each cohort, 9 participants were randomized to receive multiple doses of Compound A HBr and 3 participants were randomized to receive matching placebo. The participants received daily doses in the fed state from Day 1 to Day 7. The doses were administered in an ascending order per cohort. Progression to the next dose level and dose selection were based on available data from part 1 and the preceding dose cohort in part 2 (safety, tolerability, and PD data [up to 48 hours post-final dose] and available PK data [up to 24 hours post-final dose] from a minimum of 10 participants [Compound A HBr n≥7] in the preceding dose cohort). The final dose levels of Compound A HBr for part 2 were 40, 120, and 360 mg. An ACTH challenge test was performed on Day −2 and on Day 6 to evaluate Compound A HBr selectivity for aldosterone synthesis. Plasma concentrations of aldosterone and 11-deoxycortisol and serum concentrations of cortisol and 11-DOC were measured pre-ACTH dose and 30 and 60 minutes post-ACTH dose on Day −2 and Day 6.
(§1) Plasma concentrations of aldosterone, 11-deoxycortisol, and ACTH; renin activity; renin concentration; and serum concentrations of cortisol and 11-DOC were measured in all parts of the study. The amount of aldosterone, cortisol, sodium, and potassium excreted and the urinary log10 (10×Na^+/K^+) ratio were listed per collection interval.
(§2) PD parameters were derived by non-compartmental analysis using WinNonlin® Professional (version 6.3). AUC0-24 was determined where possible for plasma aldosterone and serum cortisol.
(§3) Log-transformed change from baseline (Day 1, pre-dose) at 24 hours and log-transformed change from baseline at 22 hours on Day 1 (where baseline is Day −1, 22 hours) in plasma aldosterone and serum cortisol were analyzed using a linear model with dose group (each Compound A HBr dose and pooled placebo) as a fixed effect with the corresponding Day 1 pre-dose as a covariate. The LSM difference between each Compound A HBr dose compared with placebo was obtained from the model with the 90% CI and then back-transformed (exponentiated) to obtain estimates of the ratio of adjusted geometric means and 90% CI. Log-transformed change from baseline (time-matched) from 0 to 24 hours post-dose in plasma aldosterone and serum cortisol as repeated measures was analyzed using a linear mixed model with dose group (each active Compound A HBr dose and pooled placebo) as fixed effects, corresponding time-matched values on Day −1 as covariate, and unstructured covariance. The pre-dose time point on Day 1 was used as the 24-hour time point on Day −1. The LSM difference between each Compound A HBr dose compared with placebo was obtained from the model together with the 90% CI, and then back-transformed to obtain estimates of the ratio of adjusted geometric means and 90% CIs. The calculated AUC parameters were analyzed using a linear model. The log-transformed parameter of interest was the dependent variable with dose group (each Compound A HBr dose and pooled placebo) as the fixed effect and log-transformed AUC0-24 on Day −1 as the covariate. The LSM difference between each Compound A HBr dose compared with placebo and 90% CIs was calculated and then back-transformed to obtain estimates of the ratio of adjusted geometric means and 90% CIs.

plasma aldosterone (PAC) [3] = test: Phase 1 part 1 single ascending dose: pharmacodynamics; type: in vivo, human; conditions: for return of baseline aldosterone levels by: single 100-mg doses; for effect on cortisol: single ascending doses; for PAC reduction compared with placebo: 24 hours post-dose; for Aldosterone AUC0-24, mean (SD): Day 1
Method: In part 1, Compound A HBr or placebo was administered to 64 healthy Caucasian men aged 18 to 55 years (inclusive) in 8 cohorts of 8 participants each. In each cohort, 6 participants were randomized to receive a single dose of Compound A HBr and 2 participants were randomized to receive matching placebo. All cohorts included 2 sentinel participants of whom 1 received Compound A HBr and 1 received matching placebo. The remaining 6 participants, of whom 5 received Compound A HBr and 1 received placebo, were dosed ≥24 hours following the sentinel participants. The dosing cohorts were 5, 10, 20, 50, 100, 200, 400, and 800 mg. Doses were administered in an ascending order per cohort, with a minimum 10-day interval between consecutive dose levels. Participants received a single dose of Compound A HBr or placebo in the fasted state.
as §1, §2, §3

hERG channel = molecular target: T1, hERG channel (Homo sapiens, UniProt Q12809); test: Effects on hERG current, whole-cell patch-clamp in HEK293 cells; type: cell-based
T1 construct: expressed in transfected cells; host or cells: HEK293 cells stably expressing hERG
Method: The effects of Compound A on the human ether-à-go-go-related gene (hERG) current were evaluated using the whole-cell patch-clamp method in human embryonic kidney (HEK293) cells stably expressing the hERG channel. Cells were treated with Compound A at concentrations of 1, 3, 10, and 30 μmol/L, positive control (E-4031) at 0.1 μmol/L, or vehicle (0.3 v/v % dimethyl sulfoxide) for 10 minutes.

T1 sequence (Q12809 whole entry): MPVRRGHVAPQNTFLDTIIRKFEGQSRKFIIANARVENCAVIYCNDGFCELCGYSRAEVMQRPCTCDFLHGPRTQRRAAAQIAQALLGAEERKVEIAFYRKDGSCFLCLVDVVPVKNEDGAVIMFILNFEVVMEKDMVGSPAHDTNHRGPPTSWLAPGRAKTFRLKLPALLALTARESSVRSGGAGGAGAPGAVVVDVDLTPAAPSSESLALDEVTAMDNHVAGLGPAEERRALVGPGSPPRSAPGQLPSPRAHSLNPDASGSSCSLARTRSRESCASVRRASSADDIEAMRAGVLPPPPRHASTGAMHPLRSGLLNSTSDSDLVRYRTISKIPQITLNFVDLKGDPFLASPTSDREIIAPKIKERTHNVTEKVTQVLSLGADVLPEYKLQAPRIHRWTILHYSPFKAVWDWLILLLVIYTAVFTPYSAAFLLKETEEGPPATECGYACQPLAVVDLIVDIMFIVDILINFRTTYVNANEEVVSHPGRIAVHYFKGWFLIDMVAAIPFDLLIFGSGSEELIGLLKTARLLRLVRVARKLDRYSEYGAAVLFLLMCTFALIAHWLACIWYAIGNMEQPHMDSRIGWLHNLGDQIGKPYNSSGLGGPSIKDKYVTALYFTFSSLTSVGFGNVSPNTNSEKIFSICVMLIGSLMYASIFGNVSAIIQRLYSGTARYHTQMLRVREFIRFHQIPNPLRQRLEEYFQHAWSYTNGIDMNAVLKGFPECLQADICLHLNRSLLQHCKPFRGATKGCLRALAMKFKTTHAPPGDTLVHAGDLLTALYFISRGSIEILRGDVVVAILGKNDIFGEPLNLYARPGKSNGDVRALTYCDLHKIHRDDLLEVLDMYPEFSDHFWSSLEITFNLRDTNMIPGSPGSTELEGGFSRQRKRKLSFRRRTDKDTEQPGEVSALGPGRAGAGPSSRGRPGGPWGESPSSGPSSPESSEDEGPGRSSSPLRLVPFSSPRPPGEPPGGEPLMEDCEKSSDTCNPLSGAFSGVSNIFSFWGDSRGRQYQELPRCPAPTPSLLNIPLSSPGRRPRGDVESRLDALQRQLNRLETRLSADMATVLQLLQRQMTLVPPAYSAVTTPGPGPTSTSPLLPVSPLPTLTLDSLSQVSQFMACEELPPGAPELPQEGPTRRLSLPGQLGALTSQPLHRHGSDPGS

SMILES: CC(=O)N[C@H]1CC[C@H](NC(=O)CN2CCN(c3nncc(-c4ccc(C)cc4)n3)CC2)CC1 [Compound A]
- tolerability ([1]; single doses up to 800 mg fasting, once-daily up to 360 mg fed, healthy men): well-tolerated
- accumulation of serum 11-DOC (plasma aldosterone (PAC) [2]; 40- and 120-mg daily cohorts): did not exceed the normal range
- accumulation of serum 11-DOC (plasma aldosterone (PAC) [2]; 360-mg daily dose cohort): much more dramatic increase in 11-DOC
- maximum PAC suppression maintained for (plasma aldosterone (PAC) [2]; MAD, doses of 40, 120, and 360 mg): approximately 12 hours
- return of baseline aldosterone levels at (plasma aldosterone (PAC) [2]; daily dosing): ~16 h
- return of baseline aldosterone levels by (plasma aldosterone (PAC) [2]): ≤ 16 h
- serum 11-DOC, plasma renin activity, and potassium concentrations (plasma aldosterone (PAC) [2]; once-daily administration, all dose levels compared to placebo): appeared to increase
- rise in serum potassium (plasma aldosterone (PAC) [2]; within 2 days of initiation, all 3 dose cohorts (part 2)): approximately 0.5 mmol/L
- urinary log10 (10×Na+/K+) ratio (plasma aldosterone (PAC) [3]; SAD, doses of ≥10 mg): produced an increase
- PAC (AUC0-24) reduced by (plasma aldosterone (PAC) [3]; single 100- to 200-mg doses): up to 40%
- return of baseline aldosterone levels by (plasma aldosterone (PAC) [3]): ≤ 16 h
- PAC (AUC0-24) reduced by (plasma aldosterone (PAC) [3]; single 400- to 800-mg doses): up to 70%
- effect on cortisol (plasma aldosterone (PAC) [3]): no meaningful effect on serum cortisol levels
- IC50 (hERG channel): > 30 µM
- inhibition at 10 min, 30 μmol/L (hERG channel; human, HEK293 cells stably expressing the hERG channel, 30 μmol/L): 27%

SMILES: CC(=O)N[C@H]1CC[C@H](NC(=O)CN2CCN(c3nncc(-c4ccc(C)cc4)n3)CC2)CC1 [Compound A HBr]
- dizziness (of mild intensity), participants ([1]; across all cohorts): 9 (10.3%)
- serious AEs ([1]; healthy participants, all parts): No serious AEs
- Aldosterone AUC0-24, mean (SD) (plasma aldosterone (PAC) [2]; 40 mg once daily): 1343 (702) ng × h/dL
- Aldosterone AUC0-24, mean (SD) (plasma aldosterone (PAC) [2]; 120 mg once daily): 1013 (312) ng × h/dL
- Aldosterone AUC0-24, mean (SD) (plasma aldosterone (PAC) [2]; 360 mg once daily): 771 (440) ng × h/dL
- 11-DOC and 11-deoxycortisol concentrations after ACTH stimulation (plasma aldosterone (PAC) [2]; 360 mg, Day 6, compared to placebo): trend in increase
- reduction in AUC0-24 for PAC compared to placebo (plasma aldosterone (PAC) [2]; 360 mg, after seven once-daily doses): approximately −50%
- ACTH-stimulated cortisol response (plasma aldosterone (PAC) [2]; Day 6, all multiple dose levels): no effect on the cortisol response
- ACTH-stimulated aldosterone response (plasma aldosterone (PAC) [2]; Day 6, all multiple dose levels, compared to placebo): completely blunted
- changes in serum cortisol and plasma 11-deoxycortisol concentrations (plasma aldosterone (PAC) [2]; during multiple dosing): No relevant changes from baseline
- return of baseline aldosterone levels by (plasma aldosterone (PAC) [2]): ≤ 16 h
- PAC reduction compared with placebo (plasma aldosterone (PAC) [3]; single doses of 100 and 200 mg): approximately −40%
- PAC reduction compared with placebo (plasma aldosterone (PAC) [3]; single doses of 400 and 800 mg): approximately −70%
- Aldosterone AUC0-24, mean (SD) (plasma aldosterone (PAC) [3]; single 5 mg): 1436 (531) ng × h/dL
- Aldosterone AUC0-24, mean (SD) (plasma aldosterone (PAC) [3]; single 10 mg): 1075 (418) ng × h/dL
- Aldosterone AUC0-24, mean (SD) (plasma aldosterone (PAC) [3]; single 20 mg): 911 (286) ng × h/dL
- Aldosterone AUC0-24, mean (SD) (plasma aldosterone (PAC) [3]; single 50 mg): 731 (247) ng × h/dL
- Aldosterone AUC0-24, mean (SD) (plasma aldosterone (PAC) [3]; single 100 mg): 562 (279) ng × h/dL
- Aldosterone AUC0-24, mean (SD) (plasma aldosterone (PAC) [3]; single 200 mg): 587 (115) ng × h/dL
- Aldosterone AUC0-24, mean (SD) (plasma aldosterone (PAC) [3]; single 400 mg): 403 (122) ng × h/dL
- Aldosterone AUC0-24, mean (SD) (plasma aldosterone (PAC) [3]; single 800 mg): 347 (108) ng × h/dL
- PAC returned to values near baseline within (plasma aldosterone (PAC) [3]; single 5-50 mg): ≤ 24 hours post-dose
- duration of PAC reduction (plasma aldosterone (PAC) [3]; single 100-800 mg): sustained until 24 hours post-dose
- return of baseline aldosterone levels by (plasma aldosterone (PAC) [3]): ≤ 16 h
- effect on cortisol (plasma aldosterone (PAC) [3]): no dose-related effect on cortisol
- decrease of AUC0-24 for PAC vs placebo (plasma aldosterone (PAC) [3]; single doses ranging from 10 to 800 mg): −36% to −77
